Measured values from patent US9468692B2, “Labeled molecular imaging agents and methods of use” (GENERAL ELECTRIC COMPANY, priority 2014, dated 2016).

The compounds below were run against T1, cystine/glutamate transporter (Homo sapiens, UniProt Q9UPY5) (assay: Inhibition of 3H-L-Glu uptake in DEM treated cells). Conditions: SK-OV-3, 0.5 h; 1 mM agent; SKOV3 cells treated with 100 μM DEM overnight; 30 minutes uptake at room temperature; triplicate; lower = inhibition of transporter; read-out: % of control 3H-Glu uptake.
T1 construct: endogenous in cells; host or cells: SKOV3 cells treated with 100 uM DEM (the paragraph also says 'DEM treated EL4 cells')
T1 sequence (Q9UPY5 1-501): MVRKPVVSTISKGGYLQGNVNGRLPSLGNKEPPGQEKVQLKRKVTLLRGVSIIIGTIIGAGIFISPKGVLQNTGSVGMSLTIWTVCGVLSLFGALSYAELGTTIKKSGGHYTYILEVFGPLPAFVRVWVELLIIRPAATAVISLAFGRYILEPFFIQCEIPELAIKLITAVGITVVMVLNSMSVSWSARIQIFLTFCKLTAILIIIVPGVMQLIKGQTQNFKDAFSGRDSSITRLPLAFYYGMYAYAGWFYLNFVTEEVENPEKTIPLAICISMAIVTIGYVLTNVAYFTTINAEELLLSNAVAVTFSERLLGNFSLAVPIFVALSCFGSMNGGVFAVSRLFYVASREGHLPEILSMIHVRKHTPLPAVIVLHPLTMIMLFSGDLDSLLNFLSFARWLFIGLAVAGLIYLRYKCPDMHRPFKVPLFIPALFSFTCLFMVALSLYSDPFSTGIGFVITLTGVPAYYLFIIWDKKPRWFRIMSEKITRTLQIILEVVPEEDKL
T1 sequence (P08195 2-529 partner): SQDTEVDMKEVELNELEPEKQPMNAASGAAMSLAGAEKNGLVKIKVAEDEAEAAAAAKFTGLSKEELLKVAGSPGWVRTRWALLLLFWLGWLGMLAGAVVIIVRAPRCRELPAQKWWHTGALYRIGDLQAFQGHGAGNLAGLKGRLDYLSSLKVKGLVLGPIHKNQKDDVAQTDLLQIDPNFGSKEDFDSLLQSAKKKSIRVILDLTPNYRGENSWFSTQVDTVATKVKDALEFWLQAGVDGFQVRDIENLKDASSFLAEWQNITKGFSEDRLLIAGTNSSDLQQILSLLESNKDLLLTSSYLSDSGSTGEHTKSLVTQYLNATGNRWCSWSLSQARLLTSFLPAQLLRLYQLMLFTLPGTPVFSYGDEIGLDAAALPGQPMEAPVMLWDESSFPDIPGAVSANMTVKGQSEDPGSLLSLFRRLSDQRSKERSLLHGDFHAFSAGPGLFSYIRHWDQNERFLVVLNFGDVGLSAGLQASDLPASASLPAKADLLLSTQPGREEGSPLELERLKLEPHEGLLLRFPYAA
Format: cell-based
Description: Also provided are measurements of inhibition response of ^3H-L-GLU (control) uptake in DEM treated EL4 cells. As such 96 well plate were seeded with 100,000 SKOV3 cells/well in complete growth media (McCoy's+10% Fetal Bovine Serum(FBS)) and incubated overnight at 37° C. The media was changed to 100 μM DEM and again incubated overnight at 37° C. Wash 1× with Hank's Balanced Salt Solution (HBSS) Room Temperature and assayed […] of each agent (Table 2) in triplicate by incubating for 30 minutes (uptake) at room temperature. It was then washed twice with HBSS and 200 μl MicroScint20 added for counting. The protocol used 200 μCi ^3H-Glu per well. The mix and agent and ^3H-Glu provided a final concentration of 200 μCi and 1 mM agent. […] As such lower response is indicative of inhibition of the transporter. As such numbers below approximately 30% is equivalent to 70% inhibition and are considered good candidates for pharmaceutical agents.

remaining activity at 1000 µM [%]	SMILES
54.2	N[C@@H](CCCN(CCC(=O)O)C(=O)Cc1ccccc1)C(=O)O [Structure l]
12.3	N[C@@H](CCCN(CC(=O)O)C(=O)CCc1ccccc1)C(=O)O [Structure n]
12.4	N[C@@H](CCCN(CC(=O)O)C(=O)c1cccc2ccccc12)C(=O)O [Structure p]
13.4	Cc1ccc(S(=O)(=O)N(CCC[C@H](N)C(=O)O)CC(=O)O)cc1 [Structure q]
16.4	N[C@@H](CCCN(CC(=O)O)C(=O)OCc1ccccc1)C(=O)O [Structure r]
22.4	N[C@@H](CCCN(CC(=O)O)C(=O)c1ccc(O)cc1)C(=O)O [Structure s]
45.4	N[C@@H](CCCN(CCC(=O)O)C(=O)c1ccc(O)cc1)C(=O)O [Structure t]
12.7	N[C@@H](CCCN(CCC(=O)O)C(=O)c1ccc(OCc2ccccc2)cc1)C(=O)O [Structure u]
26.1	CCC(C(=O)O)N(CCC[C@H](N)C(=O)O)C(=O)c1ccccc1 (stereo partly shown) [Structure w]
13.3	N[C@@H](CCCN(CC(=O)O)C(=O)c1ccc(OCCF)cc1)C(=O)O [Structure x]
10.6	N[C@@H](CCCN(CCC(=O)O)C(=O)c1ccc(OCCF)cc1)C(=O)O [Structure y]

The next lines start with the compound.

SMILES	remaining activity at 1000 µM [%]
CC(=O)N(CCC[C@H](N)C(=O)O)CCC(=O)O [Structure a]	118
CC(=O)N(CCC[C@H](N)C(=O)O)CC(=O)O [Structure b]	95.7
CC(=O)N(CCCC[C@H](N)C(=O)O)CCC(=O)O [Structure c]	102
N[C@@H](CCCN(CCC(=O)O)C(=O)c1ccccc1)C(=O)O [Structure d]	36
CCCC(=O)N(CCCC[C@H](N)C(=O)O)CC(=O)O [Structure e]	102
N[C@@H](CCCN(CC(=O)O)C(=O)c1ccccc1)C(=O)O [Structure f]	37.2
CCc1ccc(C(=O)N(CCC[C@H](N)C(=O)O)CC(=O)O)cc1 [Structure g]	11.2
CCOc1cccc(C(=O)N(CCC[C@H](N)C(=O)O)CC(=O)O)c1 [Structure h]	39.8
CCOc1ccc(C(=O)N(CCC[C@H](N)C(=O)O)CC(=O)O)cc1 [Structure i]	17.3
N[C@@H](CCCN(CC(=O)O)C(=O)Cc1ccccc1)C(=O)O [Structure j]	43.3
CCOc1ccc(C(=O)N(CCC[C@H](N)C(=O)O)CCC(=O)O)cc1 [Structure k]	11.6
